From patent US20250179057A1, “MEK IMMUNE ONCOLOGY INHIBITORS AND THERAPEUTIC USES THEREOF” (Immuneering Corporation, priority 2022, published 2025)

What was measured:
[1] = tested on: phospho-ERK in MM415 cells; test: pERK/tERK ratio in MM415 melanoma model; type: cell-based; conditions: MM415 (NRAS p.Q61L); 100 nM
Experimental: (§1) Compound (drug) treatment: Cells were plated in a 6-well plate at a density of 250,000-300,000 cells/well in 3 mL media and incubated 37° C. in a humidified, 5% CO2 incubator. […] These solutions were added to the cells (3 uL/well), mixed by swirling the plate, and incubated at 37° C. in a humidified, 5% CO2 incubator for 2 hours.
(§2) Cell lysis and protein estimation: Cells were washed with PBS, and scraped in 50 μL of lysis buffer containing protease and phosphatase inhibitors. Cell lysates were stored at −20° C. Cell lysates were thawed and spun at 12,000 rpm for one minute, 3 ul of the supernatant was added to 500 μL of Coomassie blue reagent following by 500 μL of water. […] Protein standards were used (0-20 mg/mL) to calculate protein concentrations of test samples.
(§3) All samples were heated at 95° C. for 5 minutes, cooled to room temperature and spun down. […] After the run, gel was removed and protein transfer was done using iBlot for 7 minutes, as per manufacturer's recommendations. After the transfer, nitrocellulose membrane was incubated on a shaker in 5 mL of blocking buffer at room temperature for 1 hr. The blot was then incubated overnight on a shaker in 5 ml of blocking buffer containing 0.2% Tween-20 and primary antibody, at room temperature. Anti-phospho-STAT3 antibody was used at a dilution of 1:500, the other 3 primary antibodies were used at a dilution of 1:1000.
(§4) Next day, the blot was washed 3 times for 10 min each with 10 mL of TBST followed by incubation on a shaker in 5 ml of blocking buffer containing 0.2% Tween-20 and 0.5 ul of the IRDye labeled secondary antibodies, diluted 1:10000, at room temperature for 1 hr. The blot was then washed 3 times for 10 min each with 10 mL of TBST and dried between sheets of paper towels. Imaging was done using LICOR's Odyssey imaging system, quantitation was done using their software, Image Studio version 3.1.
(§5) The nine models are described in Table 16.

[2] = PubChem Compound Summary; cited from earlier work
[3] = tested on: phospho-ERK in SK-MEL-2 cells; test: pERK/tERK ratio in SK-MEL-2 melanoma model; type: cell-based; conditions: SK-MEL-2 (NRAS p.Q61R); 100 nM
Experimental: as §1, §2, §3, §4, §5

[4] = tested on: phospho-MEK in Hs852.T cells; test: pMEK/tMEK ratio in Hs852.T melanoma model; type: cell-based; conditions: Hs852.T (NRAS p.G12V); 100 nM
Experimental: as §1, §2, §3, §4, §5

[5] = tested on: phospho-MEK in SK-MEL-30 cells; test: pMEK/tMEK ratio in SK-MEL-30 melanoma model; type: cell-based; conditions: SK-MEL-30 (NRAS p.Q61K); 100 nM
Experimental: as §1, §2, §3, §4, §5

[6] = tested on: phospho-MEK in A375 cells; test: pMEK/tMEK ratio in A375 melanoma model; type: cell-based; conditions: A375 (BRAF p.V600E); 100 nM
Experimental: as §1, §2, §3, §4, §5

[7] = tested on: phospho-MEK in MeWo cells; test: pMEK/tMEK ratio in MeWo melanoma model; type: cell-based; conditions: MeWo (NF1 LoF); 100 nM
Experimental: as §1, §2, §3, §4, §5

[8] = tested on: phospho-MEK in MEL-JUSO cells; test: pMEK/tMEK ratio in MEL-JUSO melanoma model; type: cell-based; conditions: MEL-JUSO (HRAS p.G13D, NRAS p.Q61L); 100 nM
Experimental: as §1, §2, §3, §4, §5

[9] = tested on: phospho-ERK in SK-MEL-30 cells; test: pERK/tERK ratio in SK-MEL-30 melanoma model; type: cell-based; conditions: SK-MEL-30 (NRAS p.Q61K); 100 nM
Experimental: as §1, §2, §3, §4, §5

[10] = tested on: phospho-MEK in MM127 cells; test: pMEK/tMEK ratio in MM127 melanoma model; type: cell-based; conditions: MM127 (NRAS p.G13R, BRAF p.G464E); 100 nM
Experimental: as §1, §2, §3, §4, §5

[11] = tested on: phospho-ERK in MeWo cells; test: pERK/tERK ratio in MeWo melanoma model; type: cell-based; conditions: MeWo (NF1 LoF); 100 nM
Experimental: as §1, §2, §3, §4, §5

[12] = tested on: phospho-ERK in MM127 cells; test: pERK/tERK ratio in MM127 melanoma model; type: cell-based; conditions: MM127 (NRAS p.G13R, BRAF p.G464E); 100 nM
Experimental: as §1, §2, §3, §4, §5

[13] = tested on: phospho-ERK in A375 cells; test: Cell-based pERK (pERK:tERK) in A375 cells; conditions: A375 (BRAF p.V600E); 100 nM
Experimental: Materials and Methods: A549 or A375 cells were seeded in 6-well plates at an appropriate seeding density on day 0. On day 2 or 3, after checking the health and confluency of cells, the media was aspirated and replaced with 1 mL media containing a predetermined concentration of compound and incubated for 2 hours. After 2 hours, the media was aspirated, and the cells washed 2 times with cold PBS. Cells were lysed on ice, with 50 uL 1×CST lysis buffer +1 mM PMSF for 5 minutes. After 5 minutes, cells were removed using a scraper and transferred to cold 1.5 mL tubes, and centrifuged for 10 min, 4° C., 14,000×g. Supernatant was gently removed and snap frozen in liquid nitrogen. Protein concentration of the lysate was determined using Bradford Reagent (analyzed using SpectraMax M2E) and diluted to 1 mg/mL or pERK or 1.5 mg/mL for pMEK analysis. […] All dilutions were in Milk-free antibody diluent.
A549 or […] cells were treated in duplicate for two hours with compounds at varying concentrations. After two hours, the cells were lysed, snap frozen, and stored at −80° C. After storage, the lysate was quantified with the Bradford assay. Before the lysates were prepared to run on the Jess, the lysates were diluted to 1 mg/mL for pERK analysis and 1.5 mg/mL pMEK analysis using quantitative Western blotting. ERK and MEK phosphorylation levels were estimated by taking the ratio of phospho-protein to total protein and normalizing to the DMSO control.
as §5

[14] = tested on: phospho-ERK in SK-MEL-28 cells; test: pERK/tERK ratio in SK-MEL-28 melanoma model; type: cell-based; conditions: SK-MEL-28 (BRAF p.V600E); 100 nM
Experimental: as §1, §2, §3, §4, §5

[15] = tested on: phospho-MEK in SK-MEL-28 cells; test: pMEK/tMEK ratio in SK-MEL-28 melanoma model; type: cell-based; conditions: SK-MEL-28 (BRAF p.V600E); 100 nM
Experimental: as §1, §2, §3, §4, §5

[16] = tested on: phospho-ERK in MEL-JUSO cells; test: pERK/tERK ratio in MEL-JUSO melanoma model; type: cell-based; conditions: MEL-JUSO (HRAS p.G13D, NRAS p.Q61L); 100 nM
Experimental: as §1, §2, §3, §4, §5

[17] = tested on: phospho-MEK in SK-MEL-2 cells; test: pMEK/tMEK ratio in SK-MEL-2 melanoma model; type: cell-based; conditions: SK-MEL-2 (NRAS p.Q61R); 100 nM
Experimental: as §1, §2, §3, §4, §5

[18] = tested on: phospho-MEK in MM415 cells; test: pMEK/tMEK ratio in MM415 melanoma model; type: cell-based; conditions: MM415 (NRAS p.Q61L); 100 nM
Experimental: as §1, §2, §3, §4, §5

[19] = tested on: phospho-ERK in Hs852.T cells; test: pERK/tERK ratio in Hs852.T melanoma model; type: cell-based; conditions: Hs852.T (NRAS p.G12V); 100 nM
Experimental: as §1, §2, §3, §4, §5

Cn1cnc2c(F)c(Nc3ccc(Br)cc3F)c(C(=O)NOCCO)cc21 [Binimetinib]
pERK/tERK ratio normalized to DMSO [1]: 0.056
human plasma drug half-life [2]: 3.5 h
pERK/tERK ratio normalized to DMSO [3]: 0.125
pMEK/tMEK ratio normalized to DMSO [4]: 6.489
pMEK/tMEK ratio normalized to DMSO [5]: 2.649
pMEK/tMEK ratio normalized to DMSO [6]: 1.062
pMEK/tMEK ratio normalized to DMSO [7]: 7.42
pMEK/tMEK ratio normalized to DMSO [8]: 3.291
pERK/tERK ratio normalized to DMSO [9]: 0.082
pMEK/tMEK ratio normalized to DMSO [10]: 3.009
pERK/tERK ratio normalized to DMSO [11]: 0.161
pERK/tERK ratio normalized to DMSO [12]: 0.199
pERK/tERK ratio normalized to DMSO [13]: 0.136
pERK/tERK ratio normalized to DMSO [14]: 0.079
pMEK/tMEK ratio normalized to DMSO [15]: 1.055
pERK/tERK ratio normalized to DMSO [16]: 0.139
pMEK/tMEK ratio normalized to DMSO [17]: 2.587
pMEK/tMEK ratio normalized to DMSO [18]: 3.055
pERK/tERK ratio normalized to DMSO [19]: 0.203
